Laboratory results as given in PubChem BioAssay AID2060502 (Molecular Pharmacology Branch, DTP, NCI, 2025).

Tested on: 885724-159-R-J1-PDC complex spheroid viability
Assay: Anticancer human tumor 885724-159-R-J1-PDC patient-derived pancreatic adenocarcinoma cell line growth inhibition [GQUAD]
Details: for IC50: curve of first compound; for viability, T/C: stronger effect = lower value; active = viability on the fitted dose curve at most 10% of control; inactive = the rest
Method in brief: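 Multi-cell-type spheroids of tumor cells with HUVEC and mesenchymal stem cells, treated with drug combinations. Concentrations descend in half-log steps from near clinical Cmax, or from 10 microM where Cmax is unknown; viability read-out.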

[1] = second compound 0.0316 µM, first compound 0.0316 µM
[2] = second compound 0.0316 µM, first compound 0.1 µM
[3] = second compound 0.0316 µM, first compound 0.316 µM
[4] = second compound 0.0316 µM, first compound 1 µM
[5] = second compound 0.0316 µM, first compound 3.16 µM
[6] = second compound 0.0316 µM, first compound 10 µM
[7] = second compound 0.1 µM, first compound 0.0316 µM
[8] = second compound 0.1 µM, first compound 0.1 µM
[9] = second compound 0.1 µM, first compound 0.316 µM
[10] = second compound 0.1 µM, first compound 1 µM
[11] = second compound 0.1 µM, first compound 3.16 µM
[12] = second compound 0.1 µM, first compound 10 µM
[13] = second compound 0.316 µM, first compound 0.0316 µM
[14] = second compound 0.316 µM, first compound 0.1 µM
[15] = second compound 0.316 µM, first compound 0.316 µM
[16] = second compound 0.316 µM, first compound 1 µM
[17] = second compound 0.316 µM, first compound 3.16 µM
[18] = second compound 0.316 µM, first compound 10 µM
[19] = second compound 1 µM, first compound 0.0316 µM
[20] = second compound 1 µM, first compound 0.1 µM
[21] = second compound 1 µM, first compound 0.316 µM
[22] = second compound 1 µM, first compound 1 µM
[23] = second compound 1 µM, first compound 3.16 µM
[24] = second compound 1 µM, first compound 10 µM
[25] = second compound 3.16 µM, first compound 0.0316 µM
[26] = second compound 3.16 µM, first compound 0.1 µM
[27] = second compound 3.16 µM, first compound 0.316 µM
[28] = second compound 3.16 µM, first compound 1 µM
[29] = second compound 3.16 µM, first compound 3.16 µM
[30] = second compound 3.16 µM, first compound 10 µM
[31] = second compound 10 µM, first compound 0.0316 µM
[32] = second compound 10 µM, first compound 0.1 µM
[33] = second compound 10 µM, first compound 0.316 µM
[34] = second compound 10 µM, first compound 1 µM
[35] = second compound 10 µM, first compound 3.16 µM
[36] = second compound 10 µM, first compound 10 µM
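Note: spheroids exposed to agents for seven days before readout.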
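Throughout, for viability, T/C: percent of vehicle control viability where 100% = DMSO wells.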

C=CCn1c(=O)c2cnc(Nc3ccc(N4CCN(C)CC4)cc3)nc2n1-c1cccc(C(C)(C)O)n1 + Cc1[nH]c2ccc(F)cc2c1-c1nc2c3cccnc3c3ncccc3c2[nH]1
< 0.0316 µM: IC50 (second compound 3.16 µM)
active: viability, T/C [26] 8.26% | viability, T/C [27] 11.1% | viability, T/C [28] 5.9% | viability, T/C [29] 9.96% | viability, T/C [30] 8.31%
inactive: viability, T/C [1] 88.7% | viability, T/C [2] 87.8% | viability, T/C [3] 71.1% | viability, T/C [4] 63.7% | viability, T/C [5] 68.8% | viability, T/C [6] 73.9% | viability, T/C [7] 90.3% | viability, T/C [8] 90% | viability, T/C [9] 84.3% | viability, T/C [10] 79.6% | viability, T/C [11] 63.5% | viability, T/C [12] 71.8% | viability, T/C [13] 83.1% | viability, T/C [14] 83.1% | viability, T/C [15] 68.7% | viability, T/C [16] 57.6% | viability, T/C [17] 74% | viability, T/C [18] 67.1% | viability, T/C [19] 70.9% | viability, T/C [20] 55.3% | viability, T/C [21] 52.1% | viability, T/C [22] 49.9% | viability, T/C [23] 50.9% | viability, T/C [24] 41.3% | viability, T/C [25] 12.9% | viability, T/C [31] 63.5% | viability, T/C [32] 58.5% | viability, T/C [33] 47.3% | viability, T/C [34] 47% | viability, T/C [35] 50% | viability, T/C [36] 38.1%
> 10 µM: IC50 (second compound 0.0316 µM) | IC50 (second compound 0.1 µM) | IC50 (second compound 0.316 µM)
0.558 µM: IC50 (second compound 1 µM)
0.455 µM: IC50 (second compound 10 µM)

C=CC(=O)N1CCN(c2nc(=O)n(-c3c(C)ccnc3C(C)C)c3nc(-c4c(O)cccc4F)c(F)cc23)C(C)C1 (stereo unspecified) + CN(C)c1ccc(Nc2c3ccc(NC(=O)CCN4CCCC4)cc3nc3cc(NC(=O)CCN4CCCC4)ccc23)cc1
> 10 µM: IC50 (second compound 0.0316 µM) | IC50 (second compound 0.1 µM) | IC50 (second compound 0.316 µM) | IC50 (second compound 1 µM) | IC50 (second compound 3.16 µM) | IC50 (second compound 10 µM)
inactive: viability, T/C [1] 98.5% | viability, T/C [2] 101% | viability, T/C [3] 96.2% | viability, T/C [4] 93.4% | viability, T/C [5] 103% | viability, T/C [6] 95.6% | viability, T/C [7] 101% | viability, T/C [8] 106% | viability, T/C [9] 96.5% | viability, T/C [10] 98.5% | viability, T/C [11] 107% | viability, T/C [12] 87.5% | viability, T/C [13] 90.5% | viability, T/C [14] 95.3% | viability, T/C [15] 82.6% | viability, T/C [16] 82.5% | viability, T/C [17] 103% | viability, T/C [18] 89.2% | viability, T/C [19] 86.2% | viability, T/C [20] 79.4% | viability, T/C [21] 70.6% | viability, T/C [22] 79.3% | viability, T/C [23] 85.3% | viability, T/C [24] 82.3% | viability, T/C [25] 67% | viability, T/C [26] 74.1% | viability, T/C [27] 84.4% | viability, T/C [28] 69.4% | viability, T/C [29] 83.8% | viability, T/C [30] 79.6% | viability, T/C [31] 64.8% | viability, T/C [32] 76% | viability, T/C [33] 85.2% | viability, T/C [34] 84.6% | viability, T/C [35] 87.6% | viability, T/C [36] 73.3%

C#Cc1c(F)ccc2cc(O)cc(-c3ncc4c(N5CC6CCC(C5)N6)nc(OCC56CCCN5CC(F)C6)nc4c3F)c12 (stereo unspecified) + Cc1cnc(CNC(=O)c2c(=O)c3ccc(N4CCCN(C)CC4)nc3n3c2sc2ccccc23)cn1
6.19 µM: IC50 (second compound 0.316 µM)
4.5 µM: IC50 (second compound 1 µM)
1.28 µM: IC50 (second compound 10 µM)
6.01 µM: IC50 (second compound 0.0316 µM)
inactive: viability, T/C [1] 91.6% | viability, T/C [2] 120% | viability, T/C [3] 117% | viability, T/C [4] 103% | viability, T/C [5] 67% | viability, T/C [6] 36.6% | viability, T/C [7] 106% | viability, T/C [8] 110% | viability, T/C [9] 100% | viability, T/C [10] 107% | viability, T/C [11] 71.4% | viability, T/C [12] 39.7% | viability, T/C [13] 110% | viability, T/C [14] 100% | viability, T/C [15] 90.8% | viability, T/C [16] 94.5% | viability, T/C [17] 69.5% | viability, T/C [18] 35% | viability, T/C [19] 92.8% | viability, T/C [20] 81.3% | viability, T/C [21] 84.2% | viability, T/C [22] 75.3% | viability, T/C [23] 59.9% | viability, T/C [24] 28.4% | viability, T/C [25] 77.3% | viability, T/C [26] 70.2% | viability, T/C [27] 70% | viability, T/C [28] 62.9% | viability, T/C [29] 45.3% | viability, T/C [30] 19.1% | viability, T/C [31] 61.5% | viability, T/C [32] 62.7% | viability, T/C [33] 54.6% | viability, T/C [34] 55.8% | viability, T/C [35] 36.6%
active: viability, T/C [36] 1.29%
2.33 µM: IC50 (second compound 3.16 µM)
6.88 µM: IC50 (second compound 0.1 µM)
